From patent US20260284014A1, “3,5-DIAMINOTRIAZOLE DERIVATIVES AND USES THEREOF FOR TREATING OCULAR DISEASES” (CENTRE NATIONAL DE LA RECHERCHE SCIENTIFIQUE, priority 2023, published 2026)
Entries after “also recorded” stand apart in the source; their conditions may differ.

Assays:
ROS = ROS labeling by cytometry after H2O2; type: cell-based
Procedure, shortened: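 ARPE-19 cells given compound 30 min (5 μM or 1 μM) before 200 μM H2O2 for 2 h, then loaded with 10 μM DCF-DA for 30 min. ROS read by flow cytometry of DCFDA-FITC fluorescence; mean of three independent experiments.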

ERK activation (p-ERK) = experiment: p-ERK immunoblotting after CXCL8 stimulation; type: cell-based; details: 2.5 μM compound 1 h then 100 ng/ml CXCL8 for 15 min; read-out: E. p-ERK inhibition - TIME
Procedure, shortened: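 TIME cells pre-treated 1 h with 2.5 μM compound, then stimulated 15 min with 100 ng/ml CXCL8. Lysates (30–50 μg protein) separated on 10% SDS-PAGE and immunoblotted for p-ERK with ECL, HSP90 as loading control; mean of three independent experiments.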

[1] = test system: pro-inflammatory, pro-angiogenic and/or pro-fibrotic cytokines; experiment: ARPE-19 stimulation to mimic diabetic retinopathy in vitro, cytokines by multiplex ELISA; type: cell-based; details: ARPE-19, high glucose + cytokines, 5, 10, or 25 μM
Method: (§1) ARPE-19 cells were cultured in hyperglycaemic conditions (D-glucose, 25 mmol/l) for 16 days at 37° C. under 5% CO2 in medium (DMEM/F12) supplemented with 10% FBS and 1% penicillin. On day 16, cells were pre-treated with MCK349. On day 17, cells were washed and treated with MCK349 and cytokines (10 ng/ml IL1ß, 25 ng/ml VEGF and 25 ng/ml TNFα) for 24 h. Cytokines are analyzed by multiplex ELISA (Meso Scale Discovery) on the supernatant. Cells were recovered to analyze the mRNA level of different markers by qPCR.
(§2) Cytokines from plasma (whole blood) or supernatant (ARPE-19 cells) were analyzed by multiplex ELISA. A multiplex ELISA was designed from U-PLEX Biomarker Group 1 (hu) Assays (K15069L-1). The protocol performed follows the instructions of the supplier.

[2] = test system: pro-inflammatory, pro-angiogenic and/or pro-fibrotic mRNA markers; experiment: ARPE-19 stimulation to mimic diabetic retinopathy in vitro, mRNA by qPCR; type: cell-based; details: ARPE-19, high glucose + cytokines, 5 or 10 μM
Method: One microgram of total RNA was used for the reverse transcription, using the QuantiTect Reverse Transcription kit (QIAGEN, Hilden, Germany), with blend of oligo (dT) and random primers to prime first-strand synthesis. SYBR master mix plus (Eurogentec) was used for qPCR. The mRNA level was normalized to 36B4 mRNA
as §1

[3] = test system: choroidal neovascularization (CNV); experiment: Laser induced choroidal neovascularization and vascular leakage in mice; type: in vivo; details: intravitreal 52 μg/ml (2 μl) four times, Day 9 and 15
Method: Laser photocoagulation (shoot retina with laser beam (50 μm, 0.1 s, and 250~300 mW or any other parameters reasonable) for 4 spots avoiding blood vessels) were performed binocularly on each animal at Day 1 on male C57 mice (8 mice per group).
Vehicle and MCK349 (52 μg/ml) were delivered by binocular intravitreal injection (2 μl) four times in total. Once on Day 1 (right after modeling), Day 4, Day 7 and Day 11. Optical Coherence Tomography (OCT) was performed once on modeling day right after laser photocoagulation and once on Day 9 and Day 15. CNV volume of each lesion will be measured. Fundus Fluorescein Angiography (FFA) was conducted once on Day 9 and Day 15. The angiograms will be graded as follows: Grade 0, no bright hyperfluorescence; Grade 1, hyperfluorescence without leakage; Grade 2a, hyperfluorescence and late leakage; and Grade 2b, bright hyperfluorescence and late leakage beyond treated areas.

[4] = test system: pro-inflammatory cytokines; experiment: LPS stimulated whole blood, multiplex ELISA; type: cell-based; details: human whole blood, 5 or 10 μM 1 h prior to 10 ng/ml LPS for 18 h
From the text: Human peripheral […] were obtained from healthy donors with informed consent following the Declaration of Helsinki according to recommendations of an independent scientific review board. The project has been validated by The Etablissement Français du Sang, the French national agency for blood collection (protocol 7952NQ). Blood samples were collected using ethylene diamine tetraacetic acid-containing tubes.
Whole blood will be removed from a single donor (K3-EDTA) and diluted 1:5 with RPMI 1640. Within 30 minutes of sampling, blood will be incubated with 5 or 10 μM MCK349 for 1 h prior to 10 ng/ml LPS stimulation for 18 h. Blood is centrifuged to recover plasma and cytokines are analyzed by multiplex ELISA (Meso Scale Discovery).
as §2

TIME cells [5] = experiment: Vessels formation assay on Matrigel; type: cell-based; details: 5 or 10 μM
Method: 300 μL of Matrigel Matrix were coated in 24-well plates and put 1 h a 37° C. Then Time cells were plated (300 000 cells/well). Plates were then incubated at 37° C., 5% CO2 for 24 hours. Representative images were taken with the Evos XL Core Cell Imaging System at low magnification (4×).

ARPE-19 cells = experiment: Cell viability (XTT assay); type: cell-based; details: Homo sapiens, 48 h, read-out: A. Safety IC50 on ARPE-19 cells
Procedure, shortened: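 ARPE-19 cells exposed to a compound dose range for 48 h, then viability read by XTT reduction to formazan at 490 nm. IC50 derived from the response; quadruplicate wells, mean of three independent experiments.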

TIME cells [6] = experiment: Endothelial cells proliferation; type: cell-based; details: 72 h
Method: TIME cells were plated in 12-well plates (25 000 cells/well) in 0.5% SVF media and then stimulated with 100 ng/mL CXCL8 or CXCL7 for 72 h. Cell proliferation is assessed by cell count. The results are expressed as % of day 0 relative to the condition tested.

[7] = test system: ocular (retinal) neo-angiogenesis; experiment: Hypoxia-induced retinal neo-angiogenesis in zebrafish; type: in vivo; details: hypoxia 5% oxygen 72 h, 0.25, 0.5, or 1 μM
Method: All animal experiments were approved by the Experimental Animal Ethical Committee. Transgenic zebrafish embryos (fli: EGFP, blood vessels marked in GFP) were raised at 28° C. under standard experimental conditions. Zebrafish embryos at the age of 24 hpf were incubated in aquarium water containing 0.2 mmol/L 1-phenyl-2-thio-urea (PTU, Sigma). At 48-hpf, zebrafish embryos were placed for 72 h in normoxia (Nx) or hypoxia 5% oxygen […], in the presence of treatment. Retinal neo-angiogenesis was analyzed by fluorescent confocal microscope and quantified by ImageJ.

Q: With Nc1nc(Nc2ccc(Cl)c(Cl)c2)nn1Cc1cccc(Br)c1 [MCK349, 1-(3-bromobenzyl)-N^3-(3,4-dichlorophenyl)-1H-1,2,4-triazole-3,5-diamine] as the compound, how does the “oxidative stress (ROS) inhibition” value (ROS; ARPE-19, 1 μM MCK349 then 200 μM H2O2 for 2 h) read?
A: Its value is “inhibits oxidative stress”.

Q: And the inhibition at 1 µM (ROS; Homo sapiens, ARPE-19, 1 μM compound then 200 μM H2O2 for 2 h, read-out: C. ROS inhibition 1 μM - ARPE-19 cells)?
A: Its inhibition at 1 µM is at least 50%.

Q: And the inhibition at 5 µM (ROS; Homo sapiens, ARPE-19, 5 μM compound then 200 μM H2O2 for 2 h, read-out: B. ROS inhibition 5 μM - ARPE-19 cells)?
A: Its inhibition at 5 µM is at least 50%.

Q: What about the inhibition at 2.5 µM (ERK activation (p-ERK)) of the same compound?
A: Its inhibition at 2.5 µM is at least 50%.

Q: What about the “secretion of pro-angiogenic and/or pro-inflammatory cytokines in diabetic retinopathy model in vitro” value [1] of the same compound?
A: The value was “inhibits pro-inflammatory, pro-angiogenic and/or pro-fibrotic cytokines; also recorded: inhibit the expression (mRNA, FIG. 3) and secretion”.

Q: What about the “expression (mRNA) of pro-angiogenic and/or pro-inflammatory cytokines in diabetic retinopathy model in vitro” value [2] of the same compound?
A: Its value is “inhibits pro-inflammatory, pro-angiogenic and/or pro-fibrotic mRNA markers; also recorded: inhibit the expression”.

Q: What about the “choroidal neovascularization (CNV)” value [3] of the same compound?
A: Its value is “inhibits vascular leakage (FIGS. 9A and B) and neovascularization; also recorded: inhibits choroidal neovascularization (CNV)”.

Q: And the “vascular leakage (FFA grade 2b lesions)” value [3]?
A: The value was “inhibits choroidal neovascularization (CNV) and vascular leakage”.

Q: What about the “pro-inflammatory cytokines induced by LPS stimulation in whole blood” value [4] of the same compound?
A: Its value is “inhibit pro-inflammatory cytokines”.

Q: And the “vessel formation on matrigel” value (TIME cells [5])?
A: The value was “inhibiting vessel formation on matrigel”.

Q: What about the IC50 (ARPE-19 cells) of the same compound?
A: The IC50 was over 25 µM.

Q: What about the “endothelial cell proliferation induced by CXCL7” value (TIME cells [6]; 100 ng/mL CXCL7, 0.1, 0.2 or 0.5 μM) of the same compound?
A: The value was “inhibiting endothelial cell proliferation”.

Q: And the “endothelial cell proliferation induced by CXCL8” value (TIME cells [6]; 100 ng/mL CXCL8, 0.1, 0.2 or 0.5 μM)?
A: Its value is “inhibiting endothelial cell proliferation induced by CXCL8”.

Q: And the “ocular (retinal) neo-angiogenesis in zebrafish” value [7]?
A: Its value is “inhibit ocular (retinal) neo-angiogenesis; also recorded: inhibit ocular neoangiogenesis”.
